Assay results reported in ChEMBL document CHEMBL5728527, “Naphthyridines as inhibitors of HPK1” (2021).

Target: Mitogen-activated protein kinase kinase kinase kinase 1 (Homo sapiens, UniProt Q92918)
Assay: Binding Assay: Lanth: For the binding assay, 4 ul 2×HPK1 and Eu-anti-GST antibody were added to each well of the assay plate using a Multidrop reagent dispenser. The solutions were incubated in a 23 C incubator for 1 h. To each well of the assay plate was added 4 ul 2× Tracer-222 using a Multidrop reagent dispenser. The solutions were again incubated in a 23 C incubator for 1 h. The results of the assay were read using an Envision plate reader with the following parameters: TR_FRET, 340ex/615 and 665em; 100 usec Delay; and 200 usec integration.

Sequence of Mitogen-activated protein kinase kinase kinase kinase 1 (Q92918 whole entry): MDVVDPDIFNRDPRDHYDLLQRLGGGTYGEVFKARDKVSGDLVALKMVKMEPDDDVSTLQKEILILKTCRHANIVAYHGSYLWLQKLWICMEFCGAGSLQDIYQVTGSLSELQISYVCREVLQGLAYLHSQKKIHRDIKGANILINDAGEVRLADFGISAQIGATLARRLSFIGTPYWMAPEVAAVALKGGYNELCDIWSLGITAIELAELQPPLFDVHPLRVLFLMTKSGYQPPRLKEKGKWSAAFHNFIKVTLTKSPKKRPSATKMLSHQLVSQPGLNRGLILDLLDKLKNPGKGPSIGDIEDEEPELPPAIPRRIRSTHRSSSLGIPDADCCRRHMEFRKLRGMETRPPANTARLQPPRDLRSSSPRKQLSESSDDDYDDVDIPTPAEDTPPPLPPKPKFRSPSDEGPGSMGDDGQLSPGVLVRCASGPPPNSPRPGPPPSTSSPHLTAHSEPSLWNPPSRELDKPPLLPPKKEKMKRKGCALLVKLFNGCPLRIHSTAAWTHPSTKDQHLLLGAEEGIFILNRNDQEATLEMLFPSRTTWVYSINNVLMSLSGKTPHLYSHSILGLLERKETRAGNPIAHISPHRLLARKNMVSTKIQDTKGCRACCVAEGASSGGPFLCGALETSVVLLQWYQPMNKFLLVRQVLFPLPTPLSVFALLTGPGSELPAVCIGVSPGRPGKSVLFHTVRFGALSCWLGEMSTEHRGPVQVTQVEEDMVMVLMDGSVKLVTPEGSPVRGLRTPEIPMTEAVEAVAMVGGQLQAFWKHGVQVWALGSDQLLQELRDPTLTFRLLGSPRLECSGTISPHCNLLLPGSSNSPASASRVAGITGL

| SMILES | Ki [nM] |
| --- | --- |
| Cc1ncc(N)c(C)c1-c1cc2cc(NC(=O)[C@@H]3C[C@H]3C)ncc2c(N)n1 (racemic) | 3.2 |
| Cc1ccncc1-c1cc2cc(NC(=O)C3CC34CC4)ncc2c(N)n1 (racemic) | 1.35 |
| Cc1ccncc1-c1cc2cc(NC(=O)[C@@H]3C[C@@H]3C)ncc2c(N)n1 (racemic) | 2.3 |
| Cc1ccncc1-c1nc(N)c2cnc(NC(=O)[C@H]3C[C@@H]3C#N)cc2c1F (racemic) | 4.4 |
| Cc1ccncc1-c1cc2cc(NC(=O)[C@@H]3C[C@H]3c3cc[nH]n3)ncc2c(N)n1 (racemic) | 0.58 |
| Cc1nn(C)c(C)c1-c1cc2cc(NC(=O)[C@H]3C[C@@H]3C(F)(F)F)ncc2c(N)n1 (racemic) | 12 |
| Cc1ccncc1-c1nc(N)c2cnc(NC(=O)[C@@H]3C[C@H]3c3cn[nH]c3)cc2c1F (racemic) | 0.19 |
| Cn1cc([C@H]2C[C@@H]2C(=O)Nc2cc3cc(-c4cnc5c(=O)n(C)ncc5c4)nc(N)c3cn2)cn1 (racemic) | 3.14 |
| Cc1ccncc1-c1cc2cc(NC(=O)[C@H]3C[C@@H]3CC#N)ncc2c(N)n1 (racemic) | 0.57 |
| Cc1cc(N2CCC2=O)ncc1-c1cc2cc(NC(=O)[C@H]3C[C@@H]3c3cnn(C)c3)ncc2c(N)n1 | 1.73 |
| Cc1ccncc1-c1cc2cc(NC(=O)[C@H]3C[C@@H]3CO)ncc2c(N)n1 (racemic) | 1.1 |
| Cc1ccncc1-c1cc2cc(NC(=O)[C@@H]3C[C@H]3C(F)(F)F)ncc2c(N)n1 (racemic) | 1.4 |
| Cc1ccncc1-c1cc2cc(Nc3cnn([C@H]4CN(C5COC5)CC[C@@H]4O)c3)ncc2c(N)n1 (racemic) | 0.567 |
| Cc1ccncc1-c1cc2cc(NC(=O)[C@@H]3C[C@H]3c3cnn(C)c3)ncc2c(N)n1 (racemic) | 0.23 |
| Cc1cc2[nH]cnc2cc1-c1cc2cc(NC(=O)[C@@H]3C[C@@H]3F)ncc2c(N)n1 (racemic) | 7.9 |
| Cc1ccncc1-c1cc2cc(NC(=O)[C@@H]3C[C@]34CCNC4)ncc2c(N)n1 (racemic) | 6.8 |
| N#CC[C@H]1C[C@@H]1C(=O)Nc1cc2cc(-c3cnccc3CCO)nc(N)c2cn1 (racemic) | 0.501 |
| CCc1ccncc1-c1cc2cc(NC(=O)[C@@H]3C[C@H]3C#N)ncc2c(N)n1 (single isomer, unassigned) | 7.36 |
| Cc1cc(C(=O)N(C)C)ncc1-c1cc2cc(NC(=O)[C@H]3C[C@@H]3c3cnn(C)c3)ncc2c(N)n1 (racemic) | 6.14 |
| Cc1c(-c2cc3cc(NC(=O)[C@H]4C[C@@H]4C#N)ncc3c(N)n2)cncc1C(F)F (racemic) | 39 |

| SMILES | Ki [nM] |
| --- | --- |
| Nc1nc(-c2cncc3c2CCN3)cc2cc(NC(=O)[C@@H]3C[C@@H]3F)ncc12 (racemic) | 0.154 |
| C[C@@H]1C[C@H]1C(=O)Nc1cc2cc(-c3cnn(C)c3)nc(N)c2cn1 (racemic) | 1.85 |
| CC(O)Cc1ccncc1-c1cc2cc(NC(=O)[C@H]3C[C@@H]3C#N)ncc2c(N)n1 (mixture of isomers) | 7.28 |
| Cc1cc(C(=O)OCc2ccccc2)ncc1-c1cc2cc(NC(=O)[C@H]3C[C@@H]3c3cnn(C)c3)ncc2c(N)n1 (racemic) | 1.17 |
| COC1CN([C@H]2C[C@@H]3[C@H](C2)[C@H]3C(=O)Nc2cc3cc(-c4cnccc4C)nc(N)c3cn2)C1 | 2.14 |
| Cc1ccncc1-c1cc2cc(NC(=O)[C@@H]3C[C@@H]3F)ncc2c(N)n1 (racemic) | 0.38 |
| Cc1cnc(CO)cc1-c1cc2cc(NC(=O)[C@@H]3C[C@@H]3F)ncc2c(N)n1 (racemic) | 18.3 |
| Cc1ccncc1-c1cc2cc(NC(=O)[C@@H]3C[C@H]3CN)ncc2c(N)n1 (racemic) | 2.4 |
| CCc1ccncc1-c1cc2cc(NC(=O)[C@@H]3C[C@@H]3C(N)=O)ncc2c(N)n1 (racemic) | 25.8 |
| Cc1ccnc(C)c1-c1cc2cc(NC(=O)[C@@H]3C[C@@H]3F)ncc2c(N)n1 (racemic) | 5.03 |
| Cc1[nH]ncc1-c1cc2cc(NC(=O)[C@@H]3C[C@H]3C(F)(F)F)ncc2c(N)n1 (racemic) | 16 |
| Cc1ccc(F)cc1-c1cc2cc(NC(=O)[C@H]3C[C@@H]3c3cnn(C)c3)ncc2c(N)n1 (racemic) | 0.113 |
| Cc1ccncc1-c1cc2cc(NC(=O)C3C[C@@H]3C(F)(F)F)ncc2c(N)n1 (some centres undefined) | 1.42 |
| Cc1ccncc1-c1cc2cc(NC(=O)[C@H]3[C@@H]4CC(N5CCOCC5)C[C@@H]43)ncc2c(N)n1 (some centres undefined) | 0.972 |
| Cn1cc([C@H]2C[C@@H]2C(=O)Nc2cc3cc(-c4cnc(N)c(C(F)(F)F)c4)nc(N)c3cn2)cn1 (racemic) | 11.8 |
| Cc1cc(C(=O)NCC(F)(F)F)ccc1-c1cc2cc(NC(=O)[C@@H]3C[C@H]3C#N)ncc2c(N)n1 (relative stereo) | 8.1 |
| Cc1ccncc1-c1cc2cc(NC(=O)[C@H]3[C@H](C)[C@@H]3CC#N)ncc2c(N)n1 | 6.01 |
| Cc1cnc(C#N)cc1-c1cc2cc(NC(=O)[C@@H]3C[C@@H]3F)ncc2c(N)n1 (racemic) | 22.5 |
| CCc1cc(N)ncc1-c1cc2cc(NC(=O)[C@@H]3C[C@@H]3F)ncc2c(N)n1 (racemic) | 5.76 |
